Measured values as given in patent US20160193179A1, “Treatment of Cardiovascular Risk in Diabetic Patients” (EVOLVA SA, priority 2012, published 2016).

Tests used:
[1] = Bioavailability (statement); conditions: in vivo
[2] = test system: platelet aggregation in PRP of type-2 diabetic patients; experiment: Platelet aggregation in citrate-anticoagulated PRP, light transmission aggregometry (LTA); format: cell-based, human; conditions: for ADP 5 late platelet aggregation (mean ± SD) / ADP 5 max platelet aggregation (mean ± SD): ADP 5 μM; for ADP 5 late platelet aggregation (mean ± SD) / ADP 20 late platelet aggregation (mean ± SD) / U-46619 late platelet aggregation (mean ± SD) / AA late platelet aggregation (mean ± SD) / COLL late platelet aggregation (mean ± SD): late aggregation at 6 minutes; for ADP 5 late platelet aggregation (mean ± SD) / ADP 5 max platelet aggregation (mean ± SD) / ADP 20 late platelet aggregation (mean ± SD) / ADP 20 max platelet aggregation (mean ± SD) / U-46619 late platelet aggregation (mean ± SD) / U-46619 max platelet aggregation (mean ± SD) / AA late platelet aggregation (mean ± SD) / COLL late platelet aggregation (mean ± SD) / COLL max platelet aggregation (mean ± SD): PRP ± 100 nM Compound 3 in vitro; for ADP 5 max platelet aggregation (mean ± SD) / ADP 20 max platelet aggregation (mean ± SD) / U-46619 max platelet aggregation (mean ± SD) / AA max platelet aggregation (mean ± SD) / COLL max platelet aggregation (mean ± SD): maximal aggregation; for ADP 20 late platelet aggregation (mean ± SD) / ADP 20 max platelet aggregation (mean ± SD): ADP 20 μM; for U-46619 late platelet aggregation (mean ± SD) / U-46619 max platelet aggregation (mean ± SD): U-46619 7 uM; for AA late platelet aggregation (mean ± SD) / AA max platelet aggregation (mean ± SD): arachidonic acid 1 mM; for AA max platelet aggregation (mean ± SD): PRP ± 100 nM Compound 3 in vitro 10 min 37°C; for COLL late platelet aggregation (mean ± SD) / COLL max platelet aggregation (mean ± SD): collagen 3 ug/ml
Procedure: Patient population: Ten patients affected by type-2 diabetes mellitus and CAD (coronary artery disease), on chronic daily treatment with 81 mg aspirin (enteric coated acetylsalicylic acid, Cardioaspirin, Bayer, Germany) are switched to clopidogrel (75 mg/day) monotherapy for 7-10 days prior to study. Pharmacodynamic assessments are performed while on aspirin (81 mg) monotherapy and clopidogrel (75 mg) monotherapy.
Blood sampling with 19-gauge needle or larger without the use of tourniquet. The first two ml of blood sampled was discarded. The venous blood samples are drawn into tri-sodium citrate filled tubes (BD Vacutainer 0.109 M. Ref. 363048) for the LTA. All tri-sodium citrate used to anticoagulate a blood sample remains in the plasma phase since it was not taken up by platelets, erythrocytes and leukocytes. Citrate plasma concentration and the resulting free plasma Ca2+ needed for platelet aggregation is directly determined by the individual haematocrit.
Platelet-rich plasma (PRP) is prepared by centrifugation at 120×g for 10 min at room temperature. Autologous platelet-poor plasma (PPP) is prepared by centrifugation at 2300×g for 15 min at room temperature. The PRP platelet count is adjusted to 250.000/ul by the autologous PPP. Stability for the platelet aggregation test is 2 hours at room temperature. Platelet aggregation is performed using LTA [2-5]. Blood is collected in citrated tubes. Citrate concentrations are adjusted according to the individual haematocrit levels according to prior LTA studies using Evolva compound. LTA is assessed using PRP by the turbidimetric method in a 2-channel aggregometer (Chrono-Log 490 Model, Chrono-Log Corp., Havertown) according to the instructions of the manufacturer. Light transmission is adjusted to 0% with the PRP and to 100% for the PPP for each measurement. Curves are recorded for 6 minutes. Platelet aggregation is determined as the maximal percent change in light transmittance from baseline using PPP as a reference as well as late platelet aggregation at 6 minutes. Platelet agonists include U-46619 (7 uM), arachidonic acid (1 mM), collagen (3 ug/ml) and ADP (20 μM and 5 μM). Pharmacodynamic testing is performed following 10 min in vitro incubation at 37° C. of PRP with 100 nM Compound 3 and without 100 nM Compound 3 (placebo).
Total of 10 LTA analysis per patient at each time point; total 2 time points=20 assessments. Table 1 and FIG. 6B compare aspirin vs. aspirin+Compound 3, Table 2 and FIG. 7A compare clopidogrel vs. clopidigrel+Comppound 3, and Table 3 and FIG. 7B compare aspirin+Compound 3 vs. clopidogrel+Comound 3.

[3] = test system: human coronary artery smooth muscle cells; experiment: Human coronary artery smooth muscle cell proliferation (WST-1); format: cell-based
Procedure: Human coronary artery SMC is cultured in SmGM2 kit medium. At 80% confluence, the SMCs are trypsinized and resuspended in either DMEM supplemented with 2% FCS (“low serum media”), or in SmGM2 kit medium containing 5% FCS, 2 ng/ml FGF, 0.5 ng/ml EGF, 5 μg/ml insulin (“growth factor media”). Subsequently, 5000 cells in 200 μL are added to each well in a 96-well plate and left to adhere overnight. Either vehicle or Compound 3 (50 nM, 500 nM, 5 μM) is added to the wells 1 h before U 46619 at different concentrations (0.1 nM to 10 μM) and incubated for another 48 h. All experiments are repeated 3-5 times for each experimental condition.
Cell proliferation is evaluated using WST-1 reagent according to the manufacturer's instructions. In brief, after replacement of phenol red containing media by 200 μL transparent serum-supplemented DMEM, 10 μL of diluted WST-1 reagent is added to each well at the end of the 48 h incubation period. After 1 h incubation at 37° C., the absorbance of the formazan dye formed is measured at 440 nm using a microplate reader.
All results are expressed as mean±SE. Statistically significant differences are determined by a one-way analysis of variances, followed by Holm-Sidak post hoc test, for multiple comparisons, using Sigma Stat software. A P value of less than 0.05 is considered significant.

SMILES | solubility (Solubility (statement)) | bioavailability [1] | ADP 5 late platelet aggregation (mean ± SD) [2] | ADP 5 max platelet aggregation (mean ± SD) [2] | ADP 20 late platelet aggregation (mean ± SD) [2] | ADP 20 max platelet aggregation (mean ± SD) [2] | U-46619 late platelet aggregation (mean ± SD) [2] | U-46619 max platelet aggregation (mean ± SD) [2] | AA late platelet aggregation (mean ± SD) [2] | AA max platelet aggregation (mean ± SD) [2] | COLL late platelet aggregation (mean ± SD) [2] | COLL max platelet aggregation (mean ± SD) [2] | concentration of maximal response (cell number, WST-1) ([3]; growth factor media) | cell number assessed by WST-1 ([3]; growth factor media, U46619 0.1 nM to 10 μM, 48 h) | absorbance vs. vehicle-treated cells (WST-1) ([3]; growth factor media, U46619 at 0.1 μM and higher) | SMC proliferation ([3]; low serum media (2% FCS))
O=C(O)CC/C=C\C[C@@H]1CO[C@H](c2ccccc2Cl)O[C@@H]1c1ccccc1O (single isomer, unassigned) [Compound 2] | poor solubility | poor |  |  |  |  |  |  |  |  |  |  |  |  |  | 
CC(=O)Oc1ccccc1C(=O)O [ASA, acetylsalicylic acid] |  |  | 46.3 ± 15% | 52.6 ± 12% | 72 ± 6% | 74.3 ± 6% | 74.9 ± 4.6% | 77 ± 5.2% | 8.5 ± 23% | 9.4 ± 22.7% | 59.6 ± 17.2% | 61.4 ± 17.6% |  |  |  | 
COC(=O)[C@H](c1ccccc1Cl)N1CCc2sccc2C1 [CLOP, clopidogrel] |  |  | 19.7 ± 21.9% | 32.8 ± 17.2% | 44.6 ± 18.9% | 54.8 ± 13.3% | 68.8 ± 13.8% | 71.6 ± 11.6% | 47.6 ± 28.2% | 49.7 ± 28.2% | 70.5 ± 10.5% | 72.6 ± 10.2% |  |  |  | 
CCCCC[C@H](O)/C=C/[C@@H]1[C@@H](C/C=C\CCCC(=O)O)[C@H]2CO[C@@H]1C2 [Compound U46619] |  |  |  |  |  |  |  |  |  |  |  |  | 1 nM | bell-shaped concentration-dependent increase | does not significantly differ | did not significantly alter
